Source: patent publication US6716829B2, “Aldosterone antagonist and cyclooxygenase-2 inhibitor combination therapy to prevent or treat inflammation-related cardiovascular disorders” (Pharmacia Corporation, priority 2000, dated 2004)
Values joined by “and” are separate entries in the source; they are usually repeats but may differ in a detail not shown here. Equal values may be shown once. “Also recorded” adds a separate entry of the source.

Columns and labels:
Osteopontin [1] = assay: Assay C: osteopontin mRNA in heart by TaqMan RT-PCR; format: in vivo, Male Sprague-Dawley rats; settings: for Osteop-pontin mRNA (AU): relative to cyclophilin expression, mean ± SEM, eplerenone dose 100 mg/kg/day; for Osteopontin (AU): mRNA, individual rats, incl. rat marked * excluded from statistics
Description: (§1) The procedure of Assay B was expanded upon in a further study. […] Myocardial tissue from animals in each treatment group was examined after 7, 14, or 30 days of treatment.
(§2) Potassium chloride supplementation was added to the saline solution in order to prevent the potential hypokalemia associated with aldosterone excess.
(§3) At the time of the surgery, an Alzet 2002 osmotic minipump (Alza Corp., Palo Alto, Calif.) containing either vehicle (9% ethanol/87% propylene glycol/4% dH2O) or 1.0 mg/mL d-aldosterone (Sigma Chemical, St. Louis, Mo.) was inserted subcutaneously at the nape of the neck. Aldosterone was administered at a dose of 0.75 µg/hour. […] Animals were sacrificed from each group (n=8-13) after 7, 14, or 30 days of treatment.
(§4) The fluorogenic 5′-nuclease assay (TaqMan PCR) using Applied Biosystems' 7700 Sequence Detection System (Applied Biosystems, Foster City, Calif.) allowed for real time detection/quantitation of a specific gene by monitoring the increase in fluorescence of a gene-specific, dye-labeled oligonucleotide probe. Probes for target and reference genes were labeled at the 5′-end with a 6-carboxyfluorescein (6FAM) reporter dye and at the 3′-end with a 6-carboxy-N,N,N′,N′-tetramethylrhodamine (TAMRA) quencher dye. When the probe was annealed to the target gene, fluorescence of 6FAM was prevented by the close proximity of TAMRA. The exonuclease activity of Taq polymerase released the dyes from the oligonucleotide probe by displacing the probe from the target sequence resulting in fluorescence excitation in direct proportion to the amount of target message present. Data analysis was performed using the Sequence Detection System software from Applied Biosystems.
(§5) All primers and probes were designed using Primer Express software supplied with the 7700 Sequence Detection System and synthesized by Applied Biosystems. Standard curves using 5-fold dilutions of total RNA (from 200 ng to 320 pg) were performed to determine the efficiency of each primer/probe set in the TaqMan reaction prior to the analysis of the experimental samples. Primer/probe sets were designed from known sequences of rat genes to be analyzed. All target gene values were normalized to a reference gene, constitutively expressed cyclophilin. Primer/probe set sequences can be found in Table 8.
(§6) RNA was extracted from frozen (−80° C.) rat heart tissue using the Totally RNA Isolation Kit (Ambion, Inc., Austin, Tex.). Tissue was crushed using a stainless steel mortar and pestle, which had been chilled to −80° C. and transferred to a dounce homogenizer (Kontes, Vineland, N.J.) containing 3-10 mL cold denaturation buffer. Tissue was homogenized and transferred to a sterile, 15 mL polypropylene centrifuge tube. An equal volume of phenol:chloroform:isoamyl alcohol (25:24:1) was added, samples were shaken vigorously for 1 min, and incubated on ice for at least 15 min. Samples were centrifuged for 30 min at 10,000g. The aqueous phase was removed, 1/10 volume of a sodium acetate solution (3.0 M NaOAc pH 4.5) was added, samples were shaken or inverted for 10 seconds, and acid-phenol (premixed with isoamyl alcohol):chloroform (5:1, Ambion, Inc.) was added at an volume equivalent to the starting sample volume. Samples were shaken vigorously for 1 min, followed by a 15-min incubation on ice, and centrifuged for 30 min at 10,000 g. The aqueous phase removed and placed in a clean polypropylene tube. An equal volume of isopropanol (Sigma, St. Louis, Mo.) was added and the samples were mixed and incubated overnight at −20° C. The samples were centrifuged for 30 min at 10,000 g, the supernatant was removed and the RNA pellet was resuspended in DNAse/RNAse-free water. Samples were frozen at −80° C. for at least 2 hours, thawed on wet ice, and diluted for quantitation.

cyclooxygenase-2 (COX-2) = assay: Assay C: COX-2 mRNA in heart by TaqMan RT-PCR; format: in vivo, Male Sprague-Dawley rats; settings: for COX-2 (AU): mRNA; for COX-2 mRNA expression: myocardium, aldosterone + salt, 7, 14, 30 days, eplerenone 100 mg/kg/day
Description: as §1, §2, §3, §4, §5, §6

osteopontin [2] = assay: Assay A: immunostaining of hearts with osteopontin-specific antibody; format: in vivo, Male Wistar rats; settings: angiotensin II-infused, saline-drinking rats; eplerenone 100 mpk; aldosterone replacement in adrenalectomized rats
Text: Osteopontin (also known as early T-cell activation-1, Eta-1) is a secreted glycoprotein with pro-inflammatory characteristics that mediates chemoattraction, activation and migration of monocytes.

Collagen I = assay: Assay C: Collagen I mRNA by TaqMan RT-PCR; format: in vivo, Male Sprague-Dawley rats; settings: for Collagen type-I message: at 30 days, compared to vehicle + salt controls; for Collagen-I (AU): collagen type I mRNA relative to cyclophilin, eplerenone dose 100 mg/kg/day
Description: as §1, §2, §3, §4
Primers and probes were designed using Oligo Primer Analysis Software, Version 5.0 (National Biosciences Inc. (NBI)-Wojciech Rychlik, Cascade, Colo.). Primers were synthesized by Life Technologies (Grand Island, N.Y.) and probes were synthesized by Applied Biosystems. Primer/probe sets were designed from known sequences of rat genes to be analyzed. All target gene values were normalized to a reference gene, constitutively expressed cyclophilin. Primer/probe sets sequences can be found in Table 8
RNA was extracted from frozen (−70° C.) left ventricle (LV) tissue (approximately 10-20 mg) using 1.5 mL RNA-STAT 60 according to manufacturer's instructions (Leedo Medical Laboratories, Inc., Houston, Tex.). Briefly, tissues were homogenized using a tissue homogenizer equipped with a 5 mm probe (Ultra-Turrax T8 Homogenizer, IKA Works, Inc. Wilmington, N.C.). Following homogenization, an equal volume of molecular grade chloroform (Sigma Chemical Co., St. Louis, Mo.) was incubated with periodic mixing for 10 min at room temperature. Samples were centrifuged at 12,000 g for 10 min and RNA was precipitated from the top layer by adding an equal volume of molecular grade isopropanol (Sigma Chemical Co.) followed by an overnight incubation at −80° C. RNA was pelleted by centrifugation at 12,000 g, washed with 75% ethanol, and solubilized in nuclease-free water (Promega, Madison, Wis.).
Double-stranded cDNA was synthesized by adding 400 ng RNA (4 uL) to a final volume of 20 uL containing 15% nuclease-free water (Promega, Madison, Wis.), 1×RT Buffer (Life Technologies, Grand Island, N.Y.), 10 mM DTT (Life Technologies), 0.5 mM each of dATP, dTTP, dGTP, dCTP (PE Biosystems, Foster City, Calif.), 2.5 μM Oligo d(T)15 (Oligo Therapeutics, Inc., Wilsonville, Oreg.), 40 units RNAsin (Promega), and 200 units SuperScript II Reverse Transcriptase (Life Technologies). The reactions were performed in thin-walled reaction tubes with caps (Applied Biosystems) to ensure accurate reaction temperatures.

[3] = group mean, data used for Table 17 (7-day protocol)
[4] = group mean, data used for Table 18 (14-day protocol)
[5] = group mean, data used for Table 19 (30-day protocol)
[6] = mean ± SEM after 7 days of treatment
[7] = mean ± SEM after 14 days of treatment
[8] = mean ± SEM after 30 days of treatment
[9] = group mean, data used for Table 15 (14 days of treatment)
[10] = group mean, data used for Table 16 (30 days of treatment)

Structure (SMILES)	Osteop-pontin mRNA (AU) (Osteopontin [1]; after 7 days of treatment)	Osteop-pontin mRNA (AU) (Osteopontin [1]; after 14 days of treatment)	Osteop-pontin mRNA (AU) (Osteopontin [1]; after 30 days of treatment)	COX-2 (AU) (cyclooxygenase-2 (COX-2); [3])	COX-2 (AU) (cyclooxygenase-2 (COX-2); [4])	COX-2 (AU) (cyclooxygenase-2 (COX-2); [5])	COX-2 mRNA expression (cyclooxygenase-2 (COX-2))	Osteopontin expression in the heart (immunostaining) (osteopontin [2])	Collagen type-I message (Collagen I)	Collagen-I (AU) (Collagen I; [6])	Collagen-I (AU) (Collagen I; [7])	Collagen-I (AU) (Collagen I; [8])	Collagen-I mRNA (AU) (Collagen I; [9])	Collagen-I mRNA (AU) (Collagen I; [10])	further results
COC(=O)[C@@H]1CC2=CC(=O)CC[C@]2(C)[C@@]23O[C@@H]2C[C@@]2(C)[C@@H](CC[C@@]24CCC(=O)O4)[C@H]13 [Eplerenone]	0.75 AU	2.94 AU	2.59 AU	1.25 AU	2.02 AU	2.28 AU	inhibition; also recorded: significantly reduced	prevented osteopontin expression	modest increase	0.85 ± 0.15 AU	1.39 ± 0.21 AU	2.53 ± 0.20 AU	1.39 AU	2.53 AU	Osteopontin (AU) (Osteopontin [1]; data used for Table 17 (7-day protocol), listed as Eplerenone + aldosterone + salt): 0.54 AU and 1.24 AU and 0.52 AU and 0.27 AU and 0.60 AU and 1.13 AU and 0.96 AU and 0.75 AU; Osteopontin (AU) (Osteopontin [1]; data used for Table 18 (14-day protocol), listed as Eplerenone + aldosterone + salt): 4.03 AU and 1.00 AU and 0.77 AU and 8.43 AU and 1.59 AU and 3.97 AU and 3.93 AU and 2.13 AU and 0.72 AU and 4.76 AU and 0.99 AU; Osteopontin (AU) (Osteopontin [1]; data used for Table 19 (30-day protocol), listed as Eplerenone + aldosterone + salt): 1.53 AU and 3.28 AU and 1.98 AU and 8.91 AU and 1.88 AU and 1.97 AU and 1.28 AU and 1.43 AU and 1.01 AU and 54.57 AU; Osteopontin mRNA expression (Osteopontin [1]; myocardium, aldosterone + salt, 7, 14, 30 days, eplerenone 100 mg/kg/day): inhibition; also recorded: significantly reduced; COX-2 (AU) (cyclooxygenase-2 (COX-2); individual rats, data used for Table 17 (7-day protocol), incl. rat marked * excluded from statistics, listed as Eplerenone + aldosterone + salt): 1.19 AU and 2.85 AU and 0.60 AU (2×) and 1.16 AU and 0.82 AU and 1.86 AU and 0.91 AU; COX-2 (AU) (cyclooxygenase-2 (COX-2); individual rats, data used for Table 18 (14-day protocol), incl. rat marked * excluded from statistics, listed as Eplerenone + aldosterone + salt): 1.56 AU and 1.04 AU and 0.70 AU and 1.41 AU and 3.78 AU and 1.86 AU and 6.19 AU and 1.87 AU and 0.99 AU and 1.92 AU and 0.86 AU; COX-2 (AU) (cyclooxygenase-2 (COX-2); individual rats, data used for Table 19 (30-day protocol), incl. rat marked * excluded from statistics, listed as Eplerenone + aldosterone + salt): 2.44 AU and 0.55 AU and 1.97 AU and 3.41 AU and 3.71 AU and 3.04 AU and 2.11 AU and 1.34 AU and 1.92 AU and 12.21 AU; Collagen-I mRNA (AU) (Collagen I; individual rats, data used for Table 15 (14 days of treatment), incl. rat marked * excluded from statistics, listed as Eplerenone + aldosterone + salt): 0.86 AU (2×) and 0.90 AU and 1.65 AU and 1.14 AU and 1.44 AU and 0.50 AU and 1.24 AU and 1.69 AU and 2.03 AU and 3.02 AU; Collagen-I mRNA (AU) (Collagen I; individual rats, data used for Table 16 (30 days of treatment), incl. rat marked * excluded from statistics, listed as Eplerenone + aldosterone + salt): 1.89 AU and 1.54 AU and 2.65 AU (2×) and 1.97 AU and 2.98 AU and 2.90 AU and 2.88 AU and 3.35 AU and 2.01 AU
C[C@]12CCC(=O)C=C1CC[C@@H]1[C@@H]2[C@@H](O)C[C@]2(C=O)[C@@H](C(=O)CO)CC[C@@H]12 [Aldosterone]	1.91 AU	6.56 AU	13.27 AU	2.22 AU	4.34 AU	4.53 AU	significantly increased	restored osteopontin expression	modest increase	1.36 ± 0.14 AU	1.33 ± 0.24 AU	2.29 ± 0.47 AU	1.33 AU	2.29 AU	Osteopontin expression upregulation (Osteopontin [1]; after 14 days of aldosterone + salt treatment): ~6 fold; Osteopontin expression upregulation (Osteopontin [1]; after 30 days of aldosterone + salt treatment): ~13 fold; Osteopontin (AU) (Osteopontin [1]; data used for Table 17 (7-day protocol), listed as Aldosterone + salt): 1.84 AU and 0.84 AU and 0.95 AU and 1.05 AU and 1.08 AU and 4.92 AU and 3.29 AU and 1.32 AU and 28.64 AU; Osteopontin (AU) (Osteopontin [1]; data used for Table 18 (14-day protocol), listed as Aldosterone + salt): 8.14 AU and 1.02 AU and 6.19 AU and 4.06 AU and 12.04 AU and 2.35 AU and 8.25 AU and 10.41 AU and 81.29 AU; Osteopontin (AU) (Osteopontin [1]; data used for Table 19 (30-day protocol), listed as Aldosterone + salt): 13.13 AU and 11.43 AU and 13.78 AU and 7.97 AU and 18.44 AU and 14.88 AU; COX-2 (AU) (cyclooxygenase-2 (COX-2); individual rats, data used for Table 17 (7-day protocol), incl. rat marked * excluded from statistics, listed as Aldosterone + salt): 2.10 AU and 0.70 AU and 2.01 AU and 2.95 AU and 2.05 AU and 1.94 AU and 3.54 AU and 2.45 AU and 0.82 AU; COX-2 (AU) (cyclooxygenase-2 (COX-2); individual rats, data used for Table 18 (14-day protocol), incl. rat marked * excluded from statistics, listed as Aldosterone + salt): 7.39 AU and 1.83 AU and 5.80 AU and 2.59 AU and 6.63 AU and 4.18 AU and 3.71 AU and 2.62 AU and 23.34 AU; COX-2 (AU) (cyclooxygenase-2 (COX-2); individual rats, data used for Table 19 (30-day protocol), incl. rat marked * excluded from statistics, listed as Aldosterone + salt): 4.26 AU and 4.81 AU and 1.54 AU and 3.10 AU and 5.28 AU and 8.20 AU; Collagen-I mRNA (AU) (Collagen I; individual rats, data used for Table 15 (14 days of treatment), incl. rat marked * excluded from statistics, listed as Aldosterone + salt): 1.15 AU and 2.31 AU and 0.25 AU and 1.89 AU and 2.03 AU and 1.00 AU and 1.20 AU and 1.70 AU and 0.43 AU and 2.69 AU; Collagen-I mRNA (AU) (Collagen I; individual rats, data used for Table 16 (30 days of treatment), incl. rat marked * excluded from statistics, listed as Aldosterone + salt): 2.20 AU and 2.02 AU (2×) and 5.88 AU and 1.05 AU and 1.32 AU and 1.98 AU and 1.63 AU and 2.54 AU
